# According to patent US4230719A, “Novel 2-[4-(3-methyl-2-thienyl)phenyl]propionic acid and pharmaceutically acceptable salt thereof and method for treating symptoms of inflammation and pain” (Toyama Chemical Co., Ltd., priority 1977, dated 1980):
# Read-outs that look alike come from different tables or passages of the source.
# Tests used:
# Glomerulonephritis = assay: Action on glomerulonephritis in rats; assay type: in vivo, rat (Wistar strain, male); conditions: 10 mg/kg p.o./day
# Excerpt: (ii) Action on glomerulonephritis in rats
# Glomerulonephritis was induced in Wistar strain male rats (each weighing 180 to 200 g) by use of an anti-rat's kidney rabbit serum obtained from the serum of a rabbit sensitized with a homogenate of rat's kidney cortice. To the rat producing stable proteinuria was orally administered the test compound repeatedly at the rate shown in Table 12 for 2 weeks, and the inhibition of uric protein was examined.
# in vivo = conditions: rat, po
# [1] = test system: Phenol Red (PSP) excretion; assay: Uricosuric action (a), inhibition of Phenol Red (PSP) excretion; assay type: in vivo, rabbit (male)
# Description: (a) The action was examined by the method of B. B. Brodie et al. who reported that the inhibitory action on Phenol Red (PSP) excretion correlates with the uricosuric action [Proc. Soc. Exp. Biol. Med., 86, 884 (1954)]. To a male rabbit weighing 2 to 3 kg was intraperitoneally administered the test compound. After 30 minutes, 75 mg/kg of a Phenol Red suspension was injected into the pinna vein of the rabbit and 30 minutes thereafter a blood sample was drawn from the pinna vein. The blood sample was centrifuged and the serum was diluted with physiological saline. The diluted serum was treated with 0.1 N NaOH to develop the color. The concentration of Phenol Red in the serum was determined from the absorbance at 560 mμ.
# Vascular permeability [2] = assay: Vascular permeability in mice (Whittle's method); assay type: in vivo, mouse (ddY strain, male); conditions: for Inhibition: dye leakage; for ED30: po, mouse, read-out: ED30
# Description: (i) Vascular permeability in mice (Whittle's method)
# The test compound was orally administered to each ddY strain male mouse (weighing each about 20 g). After 20 minutes, 0.1 ml/10 g of a 4%(Wt/V) solution of Pontamine Sky Blue in physiological saline was intravenously injected and 10 minutes thereafter 0.1 ml/10 g of a 0.7%(V/V) solution of acetic acid in physiological saline was injected intraperitoneally. After 30 minutes, the mice were killed by suffocation with chloroform. After immediate laparotomy, the dye leaked into the peritoneal cavity was washed out with distilled water. The washings were made up with water to 30 ml and the absorbance at 620 mμ was measured. The amount of leaked dye per 20 g of mouse weight was compared.
# [3] = test system: threshold value of pain due to pressure stimuli (tail); conditions: for Analgesic effect: 100% = threshold raised by 160 g; for ED50: Mus musculus, po
# [4] = test system: pain threshold (brewer's yeast, hind paw); assay: Analgesic activity, Randall-Selitto method in rat; assay type: in vivo, rat (Wistar strain, male); conditions: for Inhibition: 100% = pain threshold raised by 150 g; for ED50: po, rat, read-out: ED50
# Description: (ii) Randall-Selitto method in rat
# After one hour, the test compound was orally administered. One hour thereafter, the pain threshold value was measured four times at a time interval of one hour. The mean value of four values obtained was taken as the pain threshold value of each group of rats. The activity of the drug was assumed to be 100% when the pain threshold value was raised by 150 g.
# Vascular permeability [5] = assay: Vascular permeability in rat (Whittle's method); assay type: in vivo, rat (Wistar strain, male); conditions: for ED30: po, rat, read-out: ED30
# Description: (ii) Vascular permeability in rat (Whittle's method)
# The test compound was orally administered to each Wistar strain male rat (weighing about 150 g) which had been fasted overnight. After 55 minutes, 0.5 ml of a 0.5% Evans Blue solution was intravenously injected. Five minutes thereafter, 0.2 ml/100 g of a 3%(V/V) acetic acid solution was intraperitoneally injected. After 60 minutes from the injection of the acetic acid solution, the rats were killed by suffocation with chloroform. After immediate laparotomy, the dye leaked into the peritoneal cavity was washed out with physiological saline. The washings were made up with the saline to 30 ml and the absorbance at 640 mμ was measured to examine the effect of the test compounds by comparing the amounts of leaked dye per rat with one another.
# [6] = test system: fever (Mycobacterium butyricum); assay: Antipyretic action; assay type: in vivo, rat (Wistar strain, female); conditions: for ED1.0: po, rat, read-out: ED1.0
# Description: A suspension (0.6 mg/0.1 ml) of killed and dried Mycobacterium butyricum in liquid paraffin was subcutaneously injected in an amount of 0.1 ml into the subplantar region of the hind paw of each Wistar strain female rat weighing about 180 g. After 14 hours, the fevered rats were divided into groups, and each test compound was orally administered to each group to examine the antipyretic effect.
# Adjuvant arthritis = assay: Adjuvant arthritis; assay type: in vivo, rat (Sprague-Dawley strain, male); conditions: 1 mg/kg p.o./day, mean during one week
# Description: A suspension containing 6 mg/ml of killed and dried Mycobacterium butyricum in liquid paraffin was subcutaneously injected into the subplantar region of the left hind paw of Sprague-Dawley strain male rats (weighing 180 to 200 g) in a proportion of 0.1 ml/rat. After 14 days, the rats having inflammatory paws of similar volumes were selected and the test compound was orally administered to the rats repeatedly at the rate shown in Table 4 during one week and the mean inhibitory percent of swelling during one week was determined.
# [7] = test system: phenylbenzoquinone writhing; assay: Analgesic activity, phenylbenzoquinone method in mouse; assay type: in vivo, mouse (ddY strain, male); conditions: for Frequency of writhing, mean ± S.E.: during 10 minutes; for inhibition in vivo at 5 mg/kg / inhibition in vivo at 10 mg/kg / inhibition in vivo at 20 mg/kg: Mus musculus, 10 min, writhing, read-out: Inhibition; for inhibition in vivo at 5 mg/kg / inhibition in vivo at 10 mg/kg / inhibition in vivo at 20 mg/kg / ED50: po; for ED50: mouse, read-out: ED50
# Description: (i) Phenylbenzoquinone method in mouse
# The test compound was orally administered to each ddY strain male mouse (weighing 22±2 g; 8 mice per group). […] The frequency of writhing during 10 minutes from 5-minutes after the injection of phenylbenzoquinone was measured and compared with that of a control group to which a 0.5% Tween 80 solution was administered. The percent inhibition was calculated by the following equation: [formula]
# [8] = test system: Carrageenin-induced edema; assay: Carrageenin-induced edema; assay type: in vivo, rat (Donryu strain, male); conditions: Rattus norvegicus, po, mean in 5 hours, read-out: Inhibitory percent of swelling; for inhibition in vivo at 1 mg/kg: 1 mg/kg p.o.; for inhibition in vivo at 5 mg/kg: 5 mg/kg p.o.
# Description: (iii) Carrageenin-induced edema
# Each of the 6 Donryu strain male rats per group (each weighing about 140 g), which had been fasted overnight, was orally loaded with 4 ml of water and, after 30 minutes, the test compound was orally administered thereto. Thirty minutes thereafter, a 1%(Wt/V) solution of carrageenin in physiological saline was subcutaneously injected into the subplantar region of the left hind paw. At a time interval of one hour, starting from the end of the first hour till the end of the fifth hour after injection of carrageenin, the paw volume was measured by means of a manometer and pressure transducer. By comparison with the percent increase in swelling of the control group of rats to which a 0.5%(V/V) solution of Tween 80 had been administered, the mean inhibitory percent in 5 hours of swelling was calculated by the following equation: [formula]
SMILES,LD50 (in vivo),"Concentration of PSP in serum, mean ± S.E. ([1]; 10 mg/kg i.p.)","Concentration of PSP in serum, mean ± S.E. ([1]; 20 mg/kg i.p.)",Dye leakage (P.S.B.) mean ± S.E. (Vascular permeability [2]; 5 mg/kg p.o.),Dye leakage (P.S.B.) mean ± S.E. (Vascular permeability [2]; 10 mg/kg p.o.),Dye leakage (P.S.B.) mean ± S.E. (Vascular permeability [2]; 20 mg/kg p.o.),Inhibition (Vascular permeability [2]; 5 mg/kg p.o.),Inhibition (Vascular permeability [2]; 10 mg/kg p.o.),Inhibition (Vascular permeability [2]; 20 mg/kg p.o.),ED30 (Vascular permeability [2]),Analgesic effect ([3]; 2.5 mg/kg p.o.),Analgesic effect ([3]; 10 mg/kg p.o.),Analgesic effect ([3]; 40 mg/kg p.o.),ED50 [3],Inhibition ([4]; 1 mg/kg p.o.),Inhibition ([4]; 5 mg/kg p.o.),Inhibition ([4]; 25 mg/kg p.o.),ED50 [4],Inhibition (Vascular permeability [5]; 0.5 mg/kg p.o.),Inhibition (Vascular permeability [5]; 1 mg/kg p.o.),further results
CC(=O)OCC(=O)[C@@]1(O)CC[C@H]2[C@@H]3CCC4=CC(=O)CC[C@]4(C)[C@H]3[C@@H](O)C[C@@]21C [Hydrocortisone acetate],–,–,–,–,–,–,–,–,–,–,–,–,–,–,–,–,–,–,–,–,Inhibition of uric protein (Glomerulonephritis; 7th day): 20.0%; Inhibition of uric protein (Glomerulonephritis; 14th day): 29.0%
"Cc1ccsc1-c1ccc(C(C)C(=O)O)cc1 (single isomer, unassigned; isomer d) [d-Isomer, d-2-[4-(3-methyl-2-thienyl)phenyl]propionic acid]",230 mg/kg,223.8 ± 3.9 µg/mL,267.3 ± 18.0 µg/mL,256.4 ± 15.9 μg/20g,218.0 ± 14.3 μg/20g,160.4 ± 10.3 μg/20g,20.1%,32.0%,50.0%,8.6 mg/kg,38%,61%,80%,5.2 mg/kg,37.1%,48.5%,72.9%,4.4 mg/kg,28.1%,43.3%,"Inhibition (Vascular permeability [5]; 0.2 mg/kg p.o.): 14.2%; ED30 (Vascular permeability [5]): 0.52 mg/kg; Mean decrease in temp. ([6]; 0.2 mg/kg p.o.): 0.82 °C; Mean decrease in temp. ([6]; 1 mg/kg p.o.): 1.18 °C; Mean decrease in temp. ([6]; 5 mg/kg p.o.): 1.63 °C; ED1.0 [6]: 0.44 mg/kg; Inhibitory percent of swelling (Adjuvant arthritis): 21.6%; Frequency of writhing, mean ± S.E. ([7]; 5 mg/kg p.o.): 14.5 ± 3.5; Frequency of writhing, mean ± S.E. ([7]; 10 mg/kg p.o.): 9.9 ± 2.6; Frequency of writhing, mean ± S.E. ([7]; 20 mg/kg p.o.): 5.4 ± 1.0; inhibition in vivo at 5 mg/kg ([7]; 5 mg/kg p.o.): 38.6%; inhibition in vivo at 10 mg/kg ([7]; 10 mg/kg p.o.): 58.1%; inhibition in vivo at 20 mg/kg ([7]; 20 mg/kg p.o.): 77.1%; ED50 [7]: 7.5 mg/kg; inhibition in vivo at 1 mg/kg [8]: 40%; inhibition in vivo at 5 mg/kg [8]: 57.2%"
"Cc1ccsc1-c1ccc(C(C)C(=O)O)cc1 (racemic) [Racemic compound, dl-2-[4-(3-methyl-2-thienyl)phenyl]propionic acid]",248 mg/kg,166.7 ± 25.1 µg/mL,249.3 ± 41.4 µg/mL,262.0 ± 21.1 μg/20g,211.0 ± 26.0 μg/20g,166.8 ± 13.8 μg/20g,18.3%,34.2%,48.0%,8.5 mg/kg,33%,50%,85%,7 mg/kg,44.3%,45.2%,66.9%,6.1 mg/kg,20.1%,27.6%,"Inhibition (Vascular permeability [5]; 5 mg/kg p.o.): 50.1%; ED30 (Vascular permeability [5]): 1.1 mg/kg; Mean decrease in temp. ([6]; 0.2 mg/kg p.o.): 0.52 °C; Mean decrease in temp. ([6]; 1 mg/kg p.o.): 1.20 °C; Mean decrease in temp. ([6]; 5 mg/kg p.o.): 1.70 °C; ED1.0 [6]: 0.66 mg/kg; Inhibitory percent of swelling (Adjuvant arthritis): 14.4%; Frequency of writhing, mean ± S.E. ([7]; 5 mg/kg p.o.): 18.6 ± 4.5; Frequency of writhing, mean ± S.E. ([7]; 10 mg/kg p.o.): 11.8 ± 2.4; Frequency of writhing, mean ± S.E. ([7]; 20 mg/kg p.o.): 3.3 ± 0.9; inhibition in vivo at 5 mg/kg ([7]; 5 mg/kg p.o.): 21.2%; inhibition in vivo at 10 mg/kg ([7]; 10 mg/kg p.o.): 50%; inhibition in vivo at 20 mg/kg ([7]; 20 mg/kg p.o.): 86%; ED50 [7]: 9.7 mg/kg; inhibition in vivo at 1 mg/kg [8]: 21.2%; inhibition in vivo at 5 mg/kg [8]: 48.5%"
